Laboratory results from patent publication US20050281889A1, “Nutritional supplement for adults” (priority 2004, published 2005).

What was measured:
[1] = in vivo; cited from earlier work
blood lymphocytes = experiment: Zinc dose response: lymphocyte response to mitogen PHA (thymidine uptake, 72 h culture); type: in vivo, human; conditions: for Lymphocyte response to PHA (stimulation index): adults, age 20-50 years
Description: The basic concept underlying the assessment of the most optimum nutrient amounts for a given age group uses the principle of “dose-response graphs”. At least four groups of individuals were provided with various amounts of a given nutrient and their immune responses were measured using established and accepted techniques. The amount of a nutrient that gave the best response was considered the optimum amount. Dose response graphs were determined for all vitamins and trace elements considered essential for human health, particularly immunity.
Data for the dose response chart for zinc in a group of 20 to 50 year old adults is shown in FIG. 1, with the total amount of zinc taken is shown for each group. To determine the magnitude of immune response, an aliquot of blood was withdrawn from each subject in the study, blood lymphocytes were separated, washed and mixed with the mitogen phytohemagglutinin (PHA) in previously determined optimum amount. The optimum amount of PHA used in the experiments was predetermined by a set of dose response graphs using lymphocytes of a healthy donor and four different concentrations of PHA. After culture in a sterile environment for 72 hours, the cells were washed and mixed with radioactive thymidine. The same steps were undertaken in a control sample in which only the culture medium was used, not PHA. The cells were washed and radioactivity determined.
Dietary intake of zinc was calculated based on three 24-hour recalls and by the food frequency questionnaire methods.

Row | SMILES | biologic half-life in the body [1] | immune response (blood lymphocytes; 12 mg of zinc intake, in combination with zinc from a balanced diet) | Lymphocyte response to PHA (stimulation index) (blood lymphocytes; supplemental zinc 12 mg) | Lymphocyte response to PHA (stimulation index) (blood lymphocytes; supplemental zinc 25 mg) | Lymphocyte response to PHA (stimulation index) (blood lymphocytes; supplemental zinc 50 mg)
1 | Cc1ncc(C[n+]2csc(CCO)c2C)c(N)n1 [Thiamin] | about 15 days |  |  |  | 
2 | [Zn] [zinc] |  | best immune response | 78 | 48 | 41
